According to PubChem BioAssay (NCI):
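96-well plates; 48 h exposure; 5 concentrations. Endpoints by linear interpolation between flanking doses. Not reached: highest tested concentration assigned. At the GI50, growth is halved. Definition used: TGI = concentration required for complete inhibition of growth.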

Tests used:
Assay in all cases: inhibition of tumour cell growth, NCI panel, 48 h
MCF7 breast = system: MCF7 breast
HL-60(TB) leukemia = system: HL-60(TB) leukemia
SW-620 colon = system: SW-620 colon
OVCAR-4 ovarian = system: OVCAR-4 ovarian
MALME-3M melanoma = system: MALME-3M melanoma
KM12 colon = system: KM12 colon
NCI-H460 lung = system: NCI-H460 lung
T-47D breast = system: T-47D breast
K-562 leukemia = system: K-562 leukemia
NCI-H522 lung = system: NCI-H522 lung
OVCAR-5 ovarian = system: OVCAR-5 ovarian
HCC-2998 colon = system: HCC-2998 colon
UACC-62 melanoma = system: UACC-62 melanoma
DU-145 prostate = system: DU-145 prostate
SK-MEL-5 melanoma = system: SK-MEL-5 melanoma
HT29 colon = system: HT29 colon
A549 NSCLC = system: A549 NSCLC
LOX IMVI melanoma = system: LOX IMVI melanoma
A498 renal = system: A498 renal
TK-10 renal = system: TK-10 renal
OVCAR-8 ovarian = system: OVCAR-8 ovarian
UO-31 renal = system: UO-31 renal
CCRF-CEM leukemia = system: CCRF-CEM leukemia
SNB-19 CNS = system: SNB-19 CNS
HCT-15 colon = system: HCT-15 colon
HOP-92 NSCLC = system: HOP-92 NSCLC
BT-549 breast = system: BT-549 breast
MDA-MB-231 breast = system: MDA-MB-231 breast
M14 melanoma = system: M14 melanoma
RXF 393 renal = system: RXF 393 renal
786-0 renal = system: 786-0 renal
NCI-H23 lung = system: NCI-H23 lung
NCI/ADR-RES ovarian = system: NCI/ADR-RES ovarian
UACC-257 melanoma = system: UACC-257 melanoma
SF-295 CNS = system: SF-295 CNS
SF-539 CNS = system: SF-539 CNS
ACHN renal = system: ACHN renal
SF-268 CNS = system: SF-268 CNS
OVCAR-3 ovarian = system: OVCAR-3 ovarian
MDA-MB-468 breast = system: MDA-MB-468 breast
EKVX NSCLC = system: EKVX NSCLC
PC-3 prostate = system: PC-3 prostate
COLO 205 colon = system: COLO 205 colon
SK-MEL-28 melanoma = system: SK-MEL-28 melanoma
HS 578T breast = system: HS 578T breast
CAKI-1 renal = system: CAKI-1 renal
SK-OV-3 ovarian = system: SK-OV-3 ovarian
SK-MEL-2 melanoma = system: SK-MEL-2 melanoma
SN12C renal = system: SN12C renal
IGROV1 ovarian = system: IGROV1 ovarian
U251 CNS = system: U251 CNS
RPMI-8226 leukemia = system: RPMI-8226 leukemia
NCI-H226 lung = system: NCI-H226 lung
MDA-MB-435 = system: MDA-MB-435
MOLT-4 leukemia = system: MOLT-4 leukemia
HOP-62 NSCLC = system: HOP-62 NSCLC
HCT-116 colon = system: HCT-116 colon

SMILES: Clc1cccc(N/N=C/c2c[nH]c3ccc(Br)cc23)n1
- GI50 (MCF7 breast): 3.74 µM
- TGI (MCF7 breast): 17 µM
- GI50 (HL-60(TB) leukemia): 2.7 µM
- TGI (HL-60(TB) leukemia): 23.9 µM
- GI50 (SW-620 colon): 3.22 µM
- TGI (SW-620 colon): 15.5 µM
- GI50 (OVCAR-4 ovarian): 6.12 µM
- TGI (OVCAR-4 ovarian): 23.9 µM
- GI50 (MALME-3M melanoma): 11.6 µM
- TGI (MALME-3M melanoma): 24.5 µM
- GI50 (KM12 colon): 2.69 µM
- TGI (KM12 colon): 9.62 µM
- GI50 (NCI-H460 lung): 3.52 µM
- TGI (NCI-H460 lung): 15.2 µM
- GI50 (T-47D breast): 3.38 µM
- TGI (T-47D breast): 20.3 µM
- GI50 (K-562 leukemia): 2 µM
- TGI (K-562 leukemia): 29.6 µM
- GI50 (NCI-H522 lung): 1.01 µM
- TGI (NCI-H522 lung): 11.9 µM
- GI50 (OVCAR-5 ovarian): 10.2 µM
- TGI (OVCAR-5 ovarian): 22.1 µM
- GI50 (HCC-2998 colon): 4.07 µM
- TGI (HCC-2998 colon): 14.3 µM
- GI50 (UACC-62 melanoma): 0.718 µM
- TGI (UACC-62 melanoma): 18.1 µM
- GI50 (DU-145 prostate): 8.12 µM
- TGI (DU-145 prostate): 21 µM
- GI50 (SK-MEL-5 melanoma): 10.3 µM
- TGI (SK-MEL-5 melanoma): 22 µM
- GI50 (HT29 colon): 10.8 µM
- TGI (HT29 colon): 24 µM
- GI50 (A549 NSCLC): 11.7 µM
- TGI (A549 NSCLC): 26.3 µM
- GI50 (LOX IMVI melanoma): 1.22 µM
- TGI (LOX IMVI melanoma): 11 µM
- GI50 (A498 renal): 17 µM
- TGI (A498 renal): 32.2 µM
- GI50 (TK-10 renal): 14 µM
- TGI (TK-10 renal): 27.2 µM
- GI50 (OVCAR-8 ovarian): 5.91 µM
- TGI (OVCAR-8 ovarian): 26 µM
- GI50 (UO-31 renal): 0.391 µM
- TGI (UO-31 renal): 14.8 µM
- GI50 (CCRF-CEM leukemia): 0.231 µM
- TGI (CCRF-CEM leukemia): 16 µM
- GI50 (SNB-19 CNS): 10.2 µM
- TGI (SNB-19 CNS): 21.8 µM
- GI50 (HCT-15 colon): 3.87 µM
- TGI (HCT-15 colon): 15.3 µM
- GI50 (HOP-92 NSCLC): 1.55 µM
- TGI (HOP-92 NSCLC): 8.21 µM
- GI50 (BT-549 breast): 0.296 µM
- TGI (BT-549 breast): 12.3 µM
- GI50 (MDA-MB-231 breast): 1.47 µM
- TGI (MDA-MB-231 breast): 8.95 µM
- GI50 (M14 melanoma): 4 µM
- TGI (M14 melanoma): 17.9 µM
- GI50 (RXF 393 renal): 1.23 µM
- TGI (RXF 393 renal): 8.11 µM
- GI50 (786-0 renal): 6.61 µM
- TGI (786-0 renal): 20.3 µM
- GI50 (NCI-H23 lung): 10.2 µM
- TGI (NCI-H23 lung): 23.4 µM
- GI50 (NCI/ADR-RES ovarian): 3.08 µM
- TGI (NCI/ADR-RES ovarian): 17.6 µM
- GI50 (UACC-257 melanoma): 12 µM
- TGI (UACC-257 melanoma): 25.2 µM
- GI50 (SF-295 CNS): 7.12 µM
- TGI (SF-295 CNS): 20.4 µM
- GI50 (SF-539 CNS): 1.6 µM
- TGI (SF-539 CNS): 15 µM
- GI50 (ACHN renal): 6.73 µM
- TGI (ACHN renal): 20.1 µM
- GI50 (SF-268 CNS): 1.85 µM
- TGI (SF-268 CNS): 15.3 µM
- GI50 (OVCAR-3 ovarian): 2.11 µM
- TGI (OVCAR-3 ovarian): 11.1 µM
- GI50 (MDA-MB-468 breast): 4.42 µM
- TGI (MDA-MB-468 breast): 16.6 µM
- GI50 (EKVX NSCLC): 1.6 µM
- TGI (EKVX NSCLC): 14.6 µM
- GI50 (PC-3 prostate): 1.25 µM
- TGI (PC-3 prostate): 14 µM
- GI50 (COLO 205 colon): 11.8 µM
- TGI (COLO 205 colon): 24.2 µM
- GI50 (SK-MEL-28 melanoma): 14.2 µM
- TGI (SK-MEL-28 melanoma): 27.3 µM
- GI50 (HS 578T breast): 2.94 µM
- TGI (HS 578T breast): 27.1 µM
- GI50 (CAKI-1 renal): 1.29 µM
- TGI (CAKI-1 renal): 12.2 µM
- GI50 (SK-OV-3 ovarian): 2.04 µM
- TGI (SK-OV-3 ovarian): 16 µM
- GI50 (SK-MEL-2 melanoma): 4.85 µM
- TGI (SK-MEL-2 melanoma): 19.5 µM
- GI50 (SN12C renal): 0.695 µM
- TGI (SN12C renal): 13 µM
- GI50 (IGROV1 ovarian): 0.349 µM
- TGI (IGROV1 ovarian): 2.59 µM
- GI50 (U251 CNS): 8.5 µM
- TGI (U251 CNS): 23.6 µM
- GI50 (RPMI-8226 leukemia): 2.2 µM
- TGI (RPMI-8226 leukemia): 20.4 µM
- GI50 (NCI-H226 lung): 0.416 µM
- TGI (NCI-H226 lung): 18 µM
- GI50 (MDA-MB-435): 2.6 µM
- TGI (MDA-MB-435): 11.6 µM
- GI50 (MOLT-4 leukemia): 0.416 µM
- TGI (MOLT-4 leukemia): 11.5 µM
- GI50 (HOP-62 NSCLC): 4.28 µM
- TGI (HOP-62 NSCLC): 18.8 µM
- GI50 (HCT-116 colon): 4.36 µM
- TGI (HCT-116 colon): 18 µM
